ChEMBL document CHEMBL4507273 (2021)

Tests used:
[1] = biological target: T1, Muscarinic acetylcholine receptor M1 (Homo sapiens) (UniProt P11229); conditions: Compound concentration 10.0 uM
T1 sequence (whole entry): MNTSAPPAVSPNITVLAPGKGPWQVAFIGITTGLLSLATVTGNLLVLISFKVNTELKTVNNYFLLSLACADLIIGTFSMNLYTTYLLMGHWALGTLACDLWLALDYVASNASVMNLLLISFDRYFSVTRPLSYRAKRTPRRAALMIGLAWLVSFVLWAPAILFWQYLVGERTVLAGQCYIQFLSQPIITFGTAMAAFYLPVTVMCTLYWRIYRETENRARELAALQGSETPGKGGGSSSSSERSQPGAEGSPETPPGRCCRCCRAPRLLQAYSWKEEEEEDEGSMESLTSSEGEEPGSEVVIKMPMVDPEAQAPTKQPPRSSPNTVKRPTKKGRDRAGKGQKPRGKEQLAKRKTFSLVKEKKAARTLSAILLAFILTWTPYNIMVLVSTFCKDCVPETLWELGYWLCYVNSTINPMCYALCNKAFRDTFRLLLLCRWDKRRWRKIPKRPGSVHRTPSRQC

[2] = biological target: RAC-beta serine/threonine-protein kinase (Homo sapiens) (UniProt P31751); conditions: Compound concentration 1000.0 nM
[3] = test system: Tyrosine-protein kinase ABL1 (Homo sapiens), P00519 [F317I]; conditions: Compound concentration 1000.0 nM
[4] = biological target: Hepatocyte growth factor receptor (Homo sapiens) (UniProt P08581); conditions: Compound concentration 1000.0 nM
[5] = biological target: T2, Sigma intracellular receptor 2 (Homo sapiens, UniProt Q5BJF2); test: GPCRScan assay: inhibition of Sigma 2; parameters: radioligand conc. used [nm] 5.0, parental cells HEKT
[6] = biological target: Ephrin type-A receptor 3 (Homo sapiens) (UniProt P29320); conditions: Compound concentration 1000.0 nM
[7] = biological target: Interferon-induced, double-stranded RNA-activated protein kinase (Homo sapiens) (UniProt P19525); conditions: Compound concentration 1000.0 nM
[8] = biological target: Ephrin type-A receptor 5 (Homo sapiens) (UniProt P54756); conditions: Compound concentration 1000.0 nM
[9] = biological target: Death-associated protein kinase 3 (Homo sapiens) (UniProt O43293); conditions: Compound concentration 1000.0 nM
[10] = biological target: Tyrosine-protein kinase receptor TYRO3 (Homo sapiens) (UniProt Q06418); conditions: Compound concentration 1000.0 nM
[11] = biological target: Homeodomain-interacting protein kinase 3 (Homo sapiens) (UniProt Q9H422); conditions: Compound concentration 1000.0 nM
[12] = biological target: Serine/threonine-protein kinase SIK3 (Homo sapiens) (UniProt Q9Y2K2); conditions: Compound concentration 1000.0 nM
[13] = biological target: High affinity nerve growth factor receptor (Homo sapiens) (UniProt P04629); conditions: Compound concentration 1000.0 nM
[14] = biological target: Serine/threonine-protein kinase TNNI3K (Homo sapiens) (UniProt Q59H18); conditions: Compound concentration 1000.0 nM
[15] = test system: Epidermal growth factor receptor (Homo sapiens), P00533 [UNDEFINED MUTATION]; conditions: Compound concentration 1000.0 nM
[16] = biological target: Phosphatidylinositol 4-kinase beta (Homo sapiens) (UniProt Q9UBF8); conditions: Compound concentration 1000.0 nM
[17] = biological target: Protein-tyrosine kinase 6 (Homo sapiens) (UniProt Q13882); conditions: Compound concentration 1000.0 nM
[18] = biological target: Cyclin-dependent kinase 4 (Homo sapiens) (UniProt P11802); conditions: Compound concentration 1000.0 nM
[19] = biological target: 5-hydroxytryptamine receptor 1B (Homo sapiens, UniProt P28222); conditions: Compound concentration 10.0 uM
[20] = biological target: Tyrosine-protein kinase ZAP-70 (Homo sapiens) (UniProt P43403); conditions: Compound concentration 1000.0 nM
[21] = biological target: Mitogen-activated protein kinase kinase kinase kinase 2 (Homo sapiens) (UniProt Q12851); conditions: Compound concentration 1000.0 nM
[22] = biological target: Cyclin-dependent kinase-like 1 (Homo sapiens) (UniProt Q00532); conditions: Compound concentration 1000.0 nM
[23] = biological target: T2, Sigma intracellular receptor 2; conditions: Compound concentration 10.0 uM
[24] = biological target: Activin receptor type-1-like (Homo sapiens) (UniProt P37023); conditions: Compound concentration 1000.0 nM
[25] = biological target: Ephrin type-A receptor 2 (Homo sapiens) (UniProt P29317); conditions: Compound concentration 1000.0 nM
[26] = biological target: Ribosomal protein S6 kinase beta-1 (Homo sapiens) (UniProt P23443); conditions: Compound concentration 1000.0 nM
[27] = biological target: Sodium-dependent dopamine transporter (Homo sapiens, UniProt Q01959); conditions: Compound concentration 10.0 uM
[28] = biological target: Serine/threonine-protein kinase WNK1 (Homo sapiens) (UniProt Q9H4A3); conditions: Compound concentration 1000.0 nM
[29] = biological target: Mitogen-activated protein kinase kinase kinase 11 (Homo sapiens) (UniProt Q16584); conditions: Compound concentration 1000.0 nM
[30] = biological target: Myosin-IIIb (Homo sapiens) (UniProt Q8WXR4); conditions: Compound concentration 1000.0 nM
[31] = biological target: Leucine-rich repeat serine/threonine-protein kinase 2 (Homo sapiens) (UniProt Q5S007); conditions: Compound concentration 1000.0 nM
[32] = biological target: Dual specificity tyrosine-phosphorylation-regulated kinase 1A (Homo sapiens) (UniProt Q13627); conditions: Compound concentration 1000.0 nM
[33] = biological target: Activin receptor type-2A (Homo sapiens) (UniProt P27037); conditions: Compound concentration 1000.0 nM
[34] = biological target: Serine/threonine-protein kinase 36 (Homo sapiens) (UniProt Q9NRP7); conditions: Compound concentration 1000.0 nM
[35] = test system: Phosphatidylinositol 4,5-bisphosphate 3-kinase catalytic subunit alpha isoform (Homo sapiens), P42336 [Q546K]; conditions: Compound concentration 1000.0 nM
[36] = test system: Mast/stem cell growth factor receptor Kit (Homo sapiens), P10721 [D816H]; conditions: Compound concentration 1000.0 nM
[37] = biological target: Dual serine/threonine and tyrosine protein kinase (Homo sapiens) (UniProt Q6XUX3); conditions: Compound concentration 1000.0 nM
[38] = biological target: Serine/threonine-protein kinase Nek2 (Homo sapiens) (UniProt P51955); conditions: Compound concentration 1000.0 nM
[39] = biological target: Serine/threonine-protein kinase SIK2 (Homo sapiens) (UniProt Q9H0K1); conditions: Compound concentration 1000.0 nM

T2 sequence (Q5BJF2 whole entry): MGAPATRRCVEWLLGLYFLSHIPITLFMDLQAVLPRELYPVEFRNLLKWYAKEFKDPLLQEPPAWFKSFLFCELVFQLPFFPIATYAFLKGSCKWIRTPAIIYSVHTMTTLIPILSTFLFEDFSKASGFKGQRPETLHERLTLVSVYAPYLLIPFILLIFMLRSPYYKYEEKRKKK
Sequence of Mitogen-activated protein kinase kinase kinase 11 (Homo sapiens) (Q16584 whole entry, looked up): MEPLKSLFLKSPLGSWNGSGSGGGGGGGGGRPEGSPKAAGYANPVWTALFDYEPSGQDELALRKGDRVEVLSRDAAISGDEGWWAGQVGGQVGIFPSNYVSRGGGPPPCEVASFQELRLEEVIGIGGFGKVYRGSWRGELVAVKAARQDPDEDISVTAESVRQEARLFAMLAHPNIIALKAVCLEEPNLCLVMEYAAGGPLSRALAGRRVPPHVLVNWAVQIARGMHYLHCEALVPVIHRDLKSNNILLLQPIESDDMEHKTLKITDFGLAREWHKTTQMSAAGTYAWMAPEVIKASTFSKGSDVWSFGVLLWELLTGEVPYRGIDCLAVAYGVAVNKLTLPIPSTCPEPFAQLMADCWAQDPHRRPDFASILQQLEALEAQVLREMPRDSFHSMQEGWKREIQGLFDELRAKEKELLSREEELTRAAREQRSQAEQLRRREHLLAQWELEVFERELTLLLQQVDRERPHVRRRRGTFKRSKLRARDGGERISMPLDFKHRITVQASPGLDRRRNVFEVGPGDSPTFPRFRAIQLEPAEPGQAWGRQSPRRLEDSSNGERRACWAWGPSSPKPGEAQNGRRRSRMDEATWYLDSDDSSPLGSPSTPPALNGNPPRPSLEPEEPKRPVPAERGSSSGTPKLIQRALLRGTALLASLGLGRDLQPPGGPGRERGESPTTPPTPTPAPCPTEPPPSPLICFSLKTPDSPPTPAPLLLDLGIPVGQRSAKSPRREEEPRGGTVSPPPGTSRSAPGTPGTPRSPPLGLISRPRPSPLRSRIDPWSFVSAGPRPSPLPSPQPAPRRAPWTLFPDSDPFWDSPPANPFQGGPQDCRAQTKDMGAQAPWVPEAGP
Sequence of Tyrosine-protein kinase receptor TYRO3 (Homo sapiens) (Q06418 whole entry): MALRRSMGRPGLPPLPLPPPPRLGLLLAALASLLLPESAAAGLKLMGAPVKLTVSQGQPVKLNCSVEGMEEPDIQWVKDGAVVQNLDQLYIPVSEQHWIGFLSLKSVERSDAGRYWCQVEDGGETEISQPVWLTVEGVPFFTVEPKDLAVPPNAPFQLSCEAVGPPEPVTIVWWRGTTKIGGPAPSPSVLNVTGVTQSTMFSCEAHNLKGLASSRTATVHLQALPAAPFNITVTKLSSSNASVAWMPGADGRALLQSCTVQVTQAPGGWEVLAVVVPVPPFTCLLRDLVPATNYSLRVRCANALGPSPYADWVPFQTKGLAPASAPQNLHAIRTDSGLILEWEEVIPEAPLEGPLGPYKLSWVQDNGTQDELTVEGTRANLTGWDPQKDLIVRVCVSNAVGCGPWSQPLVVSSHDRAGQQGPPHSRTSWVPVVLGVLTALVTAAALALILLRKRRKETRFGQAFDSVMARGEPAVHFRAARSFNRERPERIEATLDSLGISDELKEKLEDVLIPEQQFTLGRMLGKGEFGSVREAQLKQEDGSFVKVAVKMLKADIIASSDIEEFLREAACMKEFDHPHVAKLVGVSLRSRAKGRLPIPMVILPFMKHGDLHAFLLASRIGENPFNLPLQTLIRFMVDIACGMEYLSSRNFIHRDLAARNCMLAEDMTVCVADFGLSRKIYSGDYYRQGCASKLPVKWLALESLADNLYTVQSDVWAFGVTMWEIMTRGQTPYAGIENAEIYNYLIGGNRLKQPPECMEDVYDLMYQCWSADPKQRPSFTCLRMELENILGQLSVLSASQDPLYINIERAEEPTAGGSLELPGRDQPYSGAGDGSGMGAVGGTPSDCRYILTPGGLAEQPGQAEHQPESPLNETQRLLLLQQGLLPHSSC
Sequence of Tyrosine-protein kinase ZAP-70 (Homo sapiens) (P43403 whole entry): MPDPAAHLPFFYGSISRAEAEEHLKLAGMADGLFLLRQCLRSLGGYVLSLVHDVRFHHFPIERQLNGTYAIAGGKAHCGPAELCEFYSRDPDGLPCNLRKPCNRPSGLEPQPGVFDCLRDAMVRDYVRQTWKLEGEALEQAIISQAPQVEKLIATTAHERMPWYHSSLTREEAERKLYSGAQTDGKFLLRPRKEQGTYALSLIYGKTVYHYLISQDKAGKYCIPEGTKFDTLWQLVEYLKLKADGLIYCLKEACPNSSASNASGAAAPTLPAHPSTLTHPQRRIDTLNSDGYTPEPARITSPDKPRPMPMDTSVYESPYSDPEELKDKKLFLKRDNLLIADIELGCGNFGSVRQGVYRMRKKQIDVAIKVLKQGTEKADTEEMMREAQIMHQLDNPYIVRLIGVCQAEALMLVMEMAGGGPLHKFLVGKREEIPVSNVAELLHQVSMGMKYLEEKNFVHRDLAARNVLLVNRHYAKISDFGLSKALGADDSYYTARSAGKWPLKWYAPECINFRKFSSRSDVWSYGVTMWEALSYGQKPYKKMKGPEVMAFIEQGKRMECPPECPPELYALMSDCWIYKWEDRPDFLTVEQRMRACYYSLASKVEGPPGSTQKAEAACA
Sequence of Ephrin type-A receptor 3 (Homo sapiens) (P29320 whole entry): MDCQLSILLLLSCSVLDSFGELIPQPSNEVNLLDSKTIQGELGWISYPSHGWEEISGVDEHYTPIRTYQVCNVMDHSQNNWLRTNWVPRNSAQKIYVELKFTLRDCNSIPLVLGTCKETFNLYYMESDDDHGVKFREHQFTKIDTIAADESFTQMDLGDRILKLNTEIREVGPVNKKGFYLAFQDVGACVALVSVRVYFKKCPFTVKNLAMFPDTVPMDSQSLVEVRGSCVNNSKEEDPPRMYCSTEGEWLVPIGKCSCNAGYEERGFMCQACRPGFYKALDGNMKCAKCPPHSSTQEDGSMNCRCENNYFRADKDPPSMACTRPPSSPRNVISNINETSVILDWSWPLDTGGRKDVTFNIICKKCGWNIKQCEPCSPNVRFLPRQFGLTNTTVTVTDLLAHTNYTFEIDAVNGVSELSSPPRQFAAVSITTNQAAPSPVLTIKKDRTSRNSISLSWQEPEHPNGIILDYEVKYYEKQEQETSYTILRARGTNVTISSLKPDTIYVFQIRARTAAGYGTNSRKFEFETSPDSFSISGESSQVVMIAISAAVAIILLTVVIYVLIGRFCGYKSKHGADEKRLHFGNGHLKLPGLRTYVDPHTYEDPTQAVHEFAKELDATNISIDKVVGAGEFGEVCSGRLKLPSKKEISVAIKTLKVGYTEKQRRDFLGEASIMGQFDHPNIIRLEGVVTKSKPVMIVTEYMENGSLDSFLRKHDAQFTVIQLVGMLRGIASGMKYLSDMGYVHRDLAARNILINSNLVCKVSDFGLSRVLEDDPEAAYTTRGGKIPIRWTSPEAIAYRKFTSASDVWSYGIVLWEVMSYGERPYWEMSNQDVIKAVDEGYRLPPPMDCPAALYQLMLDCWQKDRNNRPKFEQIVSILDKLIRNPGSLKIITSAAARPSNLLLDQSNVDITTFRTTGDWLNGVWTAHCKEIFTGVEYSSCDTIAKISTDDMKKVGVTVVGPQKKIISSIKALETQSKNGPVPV
Sequence of Phosphatidylinositol 4,5-bisphosphate 3-kinase catalytic subunit alpha isoform (Homo sapiens), P42336 [Q546K] (P42336 whole entry Q546K, canonical isoform): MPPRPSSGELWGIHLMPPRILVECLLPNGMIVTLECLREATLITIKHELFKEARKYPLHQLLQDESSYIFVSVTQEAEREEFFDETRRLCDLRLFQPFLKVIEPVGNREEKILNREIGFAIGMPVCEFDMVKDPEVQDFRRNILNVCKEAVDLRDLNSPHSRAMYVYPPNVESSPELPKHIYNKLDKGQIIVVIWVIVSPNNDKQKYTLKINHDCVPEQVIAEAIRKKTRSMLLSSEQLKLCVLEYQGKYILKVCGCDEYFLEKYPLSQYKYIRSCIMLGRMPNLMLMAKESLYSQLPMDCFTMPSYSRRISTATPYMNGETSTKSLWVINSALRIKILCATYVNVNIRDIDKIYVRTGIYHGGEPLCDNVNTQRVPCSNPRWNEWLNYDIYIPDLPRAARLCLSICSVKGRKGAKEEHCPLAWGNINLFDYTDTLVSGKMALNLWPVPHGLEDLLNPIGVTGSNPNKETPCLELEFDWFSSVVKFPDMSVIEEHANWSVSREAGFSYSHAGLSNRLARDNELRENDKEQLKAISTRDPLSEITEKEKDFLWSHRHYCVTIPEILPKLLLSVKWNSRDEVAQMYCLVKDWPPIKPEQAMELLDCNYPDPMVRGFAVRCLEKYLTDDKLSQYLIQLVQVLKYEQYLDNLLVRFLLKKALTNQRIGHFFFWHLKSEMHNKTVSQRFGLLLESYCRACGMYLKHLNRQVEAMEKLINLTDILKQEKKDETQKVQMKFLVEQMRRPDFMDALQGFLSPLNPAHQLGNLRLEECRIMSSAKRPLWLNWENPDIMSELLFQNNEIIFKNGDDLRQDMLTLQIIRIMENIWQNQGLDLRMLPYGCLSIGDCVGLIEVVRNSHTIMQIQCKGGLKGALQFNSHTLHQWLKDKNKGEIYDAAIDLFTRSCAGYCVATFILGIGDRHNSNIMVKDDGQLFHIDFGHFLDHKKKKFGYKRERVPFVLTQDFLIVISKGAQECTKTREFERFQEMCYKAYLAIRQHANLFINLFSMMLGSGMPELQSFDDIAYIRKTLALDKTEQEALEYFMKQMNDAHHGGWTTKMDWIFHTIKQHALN
Sequence of Serine/threonine-protein kinase Nek2 (Homo sapiens) (P51955 whole entry): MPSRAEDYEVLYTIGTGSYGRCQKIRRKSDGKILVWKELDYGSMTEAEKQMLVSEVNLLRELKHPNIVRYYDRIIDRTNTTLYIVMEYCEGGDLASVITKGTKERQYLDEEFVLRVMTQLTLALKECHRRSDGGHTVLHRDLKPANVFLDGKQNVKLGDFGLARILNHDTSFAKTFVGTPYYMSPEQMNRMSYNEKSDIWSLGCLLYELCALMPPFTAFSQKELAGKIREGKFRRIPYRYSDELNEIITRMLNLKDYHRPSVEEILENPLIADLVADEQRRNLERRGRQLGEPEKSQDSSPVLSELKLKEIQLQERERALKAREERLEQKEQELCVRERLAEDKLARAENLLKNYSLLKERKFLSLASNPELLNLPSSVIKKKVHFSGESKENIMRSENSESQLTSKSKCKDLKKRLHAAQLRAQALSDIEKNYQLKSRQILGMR

SMILES | inhibition [1] | residual activity [2] | residual activity [3] | residual activity [4] | Ki ([5]; read-out: Ki) | residual activity [6] | residual activity [7] | residual activity [8] | residual activity [9] | residual activity [10] | residual activity [11] | residual activity [12] | residual activity [13] | residual activity [14] | residual activity [15] | residual activity [16] | residual activity [17] | residual activity [18] | inhibition [19] | residual activity [20] | also measured
CNCc1ccccc1-c1csc([C@H](C)Nc2nc(C)nc3cc(OC)c(OC)cc23)c1 [BAY-294] | 89.1% | 90% | 80% | 100% | 638 nM | 100% | 100% | 100% | 100% | 100% | 97% | 78% | 87% | 100% | 81% | 74% | 100% | 100% | 75% | 100% | Ki ([5]; read-out: pKi (converted)): 610 nM; residual activity [21]: 97%; residual activity [22]: 100%; inhibition [23]: 83.2%; residual activity [24]: 100%; residual activity [25]: 80%; residual activity [26]: 83%; inhibition [27]: 70.3%; residual activity [28]: 100%; residual activity [29]: 100%; residual activity [30]: 87%; residual activity [31]: 100%; residual activity [32]: 80%; residual activity [33]: 76%; residual activity [34]: 100%; residual activity [35]: 84%; residual activity [36]: 95%; residual activity [37]: 78%; residual activity [38]: 92%; residual activity [39]: 100%
CNCc1ccccc1-c1csc([C@@H](C)Nc2nc(C)nc3cc(OC)c(OC)cc23)c1 [BAY-293] | 88.8% | 72% | 78% | 95% | 180 nM | 87% | 90% | 88% | 100% | 89% | 83% | 90% | 87% | 100% | 63% | 82% | 100% | 100% | 66.1% | 87% | residual activity [21]: 91%; residual activity [22]: 93%; inhibition [23]: 94.8%; residual activity [24]: 87%; residual activity [25]: 76%; residual activity [26]: 86%; inhibition [27]: 77.2%; residual activity [28]: 88%; residual activity [29]: 99%; residual activity [30]: 47%; residual activity [31]: 100%; residual activity [32]: 88%; residual activity [33]: 94%; residual activity [34]: 100%; residual activity [35]: 89%; residual activity [36]: 85%; residual activity [37]: 83%; residual activity [38]: 92%; residual activity [39]: 100%
